Experimental data reported in patent US20090298820A1, “3-SUBSTITUTED-1H-PYRROLO[2,3-B]PYRIDINE AND 3-SUBSTITUTED-1H-PYRROLO[3,2-B]PYRIDINE COMPOUNDS, THEIR USE AS MTOR KINASE AND PI3 KINASE INHIBITORS, AND THEIR SYNTHESES” (Wyeth, priority 2008, published 2009).

Columns and labels:
[1] = biological target: PI3Kα (Homo sapiens, UniProt P42336); test: PI3K-alpha fluorescence polarization assay; assay type: biochemical; details: read-out: PI3Kα Median IC50
[2] = biological target: mTOR (Homo sapiens, UniProt P42345); test: mTOR enzyme assay (DELFIA format, His6-S6K substrate); assay type: biochemical; details: read-out: mTOR Kinase Median IC50
[3] = biological target: PI3Kγ (Homo sapiens, UniProt P48736); test: PI3K-gamma fluorescence polarization assay; assay type: biochemical; details: read-out: PI3Kγ Median IC50
Chain of PI3Kγ (P48736 whole entry, species assumed): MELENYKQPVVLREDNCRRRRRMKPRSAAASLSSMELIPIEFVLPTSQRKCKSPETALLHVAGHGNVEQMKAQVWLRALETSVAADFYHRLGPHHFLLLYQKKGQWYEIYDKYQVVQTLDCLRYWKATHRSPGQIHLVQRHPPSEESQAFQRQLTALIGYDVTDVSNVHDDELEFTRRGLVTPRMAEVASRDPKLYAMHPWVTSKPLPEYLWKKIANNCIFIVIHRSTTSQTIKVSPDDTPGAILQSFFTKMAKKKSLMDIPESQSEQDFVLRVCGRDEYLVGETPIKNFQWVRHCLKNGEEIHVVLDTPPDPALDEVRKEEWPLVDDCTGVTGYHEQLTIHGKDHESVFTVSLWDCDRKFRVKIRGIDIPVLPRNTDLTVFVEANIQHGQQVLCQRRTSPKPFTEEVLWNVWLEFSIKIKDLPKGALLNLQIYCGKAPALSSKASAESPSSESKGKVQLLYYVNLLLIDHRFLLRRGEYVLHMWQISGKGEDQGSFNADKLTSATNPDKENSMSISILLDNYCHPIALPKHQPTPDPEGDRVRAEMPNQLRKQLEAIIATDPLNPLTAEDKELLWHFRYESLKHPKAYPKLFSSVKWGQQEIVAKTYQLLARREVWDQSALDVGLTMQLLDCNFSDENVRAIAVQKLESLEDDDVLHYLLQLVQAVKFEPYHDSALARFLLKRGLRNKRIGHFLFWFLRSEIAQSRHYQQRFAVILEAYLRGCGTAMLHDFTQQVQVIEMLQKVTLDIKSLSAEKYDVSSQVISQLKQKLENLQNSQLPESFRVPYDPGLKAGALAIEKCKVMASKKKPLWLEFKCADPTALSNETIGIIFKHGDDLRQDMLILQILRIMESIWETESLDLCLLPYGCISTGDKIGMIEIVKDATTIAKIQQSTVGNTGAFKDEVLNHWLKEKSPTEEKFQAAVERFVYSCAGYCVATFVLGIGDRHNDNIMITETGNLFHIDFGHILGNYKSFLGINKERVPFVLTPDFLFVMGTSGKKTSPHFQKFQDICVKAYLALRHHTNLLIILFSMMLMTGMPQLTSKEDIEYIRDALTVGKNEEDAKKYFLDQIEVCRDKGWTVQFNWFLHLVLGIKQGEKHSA

Chain of PI3Kα (P42336 whole entry, species assumed): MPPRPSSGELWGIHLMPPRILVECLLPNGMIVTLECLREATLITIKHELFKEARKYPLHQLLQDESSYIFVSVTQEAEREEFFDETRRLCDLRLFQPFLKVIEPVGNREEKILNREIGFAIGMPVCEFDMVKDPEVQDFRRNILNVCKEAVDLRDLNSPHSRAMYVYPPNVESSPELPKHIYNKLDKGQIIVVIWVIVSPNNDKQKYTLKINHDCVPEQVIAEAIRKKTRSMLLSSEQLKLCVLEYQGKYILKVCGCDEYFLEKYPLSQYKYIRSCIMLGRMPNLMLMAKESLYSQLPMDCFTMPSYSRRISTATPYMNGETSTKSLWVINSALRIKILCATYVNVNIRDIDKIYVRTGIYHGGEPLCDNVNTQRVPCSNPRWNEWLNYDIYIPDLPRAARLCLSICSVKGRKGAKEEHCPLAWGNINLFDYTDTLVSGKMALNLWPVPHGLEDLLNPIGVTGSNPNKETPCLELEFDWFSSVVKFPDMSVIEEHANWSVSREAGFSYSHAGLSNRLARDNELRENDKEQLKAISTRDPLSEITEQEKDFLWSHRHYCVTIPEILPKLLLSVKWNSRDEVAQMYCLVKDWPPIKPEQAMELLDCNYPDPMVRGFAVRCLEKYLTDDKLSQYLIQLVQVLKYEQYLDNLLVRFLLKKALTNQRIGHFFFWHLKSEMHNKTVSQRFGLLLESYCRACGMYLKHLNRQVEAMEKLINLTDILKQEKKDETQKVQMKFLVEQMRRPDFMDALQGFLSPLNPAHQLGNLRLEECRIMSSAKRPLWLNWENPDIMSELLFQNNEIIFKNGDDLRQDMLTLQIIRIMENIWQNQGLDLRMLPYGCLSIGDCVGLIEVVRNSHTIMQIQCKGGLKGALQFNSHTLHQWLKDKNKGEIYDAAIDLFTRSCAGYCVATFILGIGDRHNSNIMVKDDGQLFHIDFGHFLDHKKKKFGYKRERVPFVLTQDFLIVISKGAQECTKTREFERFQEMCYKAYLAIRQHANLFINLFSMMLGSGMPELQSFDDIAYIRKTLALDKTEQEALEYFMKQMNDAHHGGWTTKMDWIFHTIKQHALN
Chain of PI3Kα (P27986 whole entry partner, species assumed): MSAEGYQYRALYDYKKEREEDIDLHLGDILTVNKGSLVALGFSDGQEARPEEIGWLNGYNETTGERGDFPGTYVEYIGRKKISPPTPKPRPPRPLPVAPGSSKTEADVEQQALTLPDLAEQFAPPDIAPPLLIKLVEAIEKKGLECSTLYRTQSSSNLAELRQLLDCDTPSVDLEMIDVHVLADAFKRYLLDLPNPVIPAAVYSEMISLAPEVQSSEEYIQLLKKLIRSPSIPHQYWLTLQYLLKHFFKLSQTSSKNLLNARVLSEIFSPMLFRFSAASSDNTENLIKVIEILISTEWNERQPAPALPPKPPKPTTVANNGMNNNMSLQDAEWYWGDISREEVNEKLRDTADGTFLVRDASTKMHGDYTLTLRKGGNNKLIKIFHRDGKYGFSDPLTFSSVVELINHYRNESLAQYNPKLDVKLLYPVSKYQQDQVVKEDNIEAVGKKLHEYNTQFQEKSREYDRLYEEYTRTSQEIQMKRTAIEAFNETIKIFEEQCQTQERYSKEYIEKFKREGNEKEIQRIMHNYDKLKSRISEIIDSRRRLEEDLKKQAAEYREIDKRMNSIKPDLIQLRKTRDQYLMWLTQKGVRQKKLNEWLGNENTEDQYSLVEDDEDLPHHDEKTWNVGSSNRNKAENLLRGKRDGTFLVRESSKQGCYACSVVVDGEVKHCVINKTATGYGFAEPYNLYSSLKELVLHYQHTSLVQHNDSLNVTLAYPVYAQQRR

Row | SMILES | IC50 [1] [nM] | IC50 [2] [nM] | IC50 [3] [nM] | melting point [°C]
1 | Cn1cc(/C=C2\Oc3cccc(O)c3C2=O)c2c(N3CC4CC3CN4)ccnc21 (stereo not drawn) [Compound 101, (2Z)-2-{[4-(2,5-diazabicyclo[2.2.1]hept-2-yl)-1-methyl-1H-pyrrolo[2,3-b]pyridin-3-yl]methylene}-4-hydroxy-1-benzofuran-3(2H)-one] | 20 | 10.8 | 339 | 325
2 | CN1CCN(C(=O)Nc2ccc3c(c2)C(=O)/C(=C/c2cn(C)c4nccc(-c5ccccc5)c24)O3)CC1 [Compound 188, 4-methyl-N-{(2Z)-2-[(1-methyl-4-phenyl-1H-pyrrolo[2,3-b]pyridin-3-yl)methylidene]-3-oxo-2,3-dihydro-1-benzofuran-5-yl}piperazine-1-carboxamide] | > 10000 | 2450 | > 10000 | 211 to 213
3 | Cn1cc(/C=C2\Oc3ccc(NC(=O)NCCCCl)cc3C2=O)c2c(N3CC4CCC(C3)O4)ccnc21 [Compound 240, 1-(3-chloropropyl)-3-[(2Z)-2-{[1-methyl-4-(8-oxa-3-azabicyclo[3.2.1]oct-3-yl)-1H-pyrrolo[2,3-b]pyridin-3-yl]methylene}-3-oxo-2,3-dihydro-1-benzofuran-5-yl]urea] | 1060 | 105 | 2180 | 234 to 241
4 | CN(Cc1cccnc1)C(=O)C1CCN(c2ccnc3c2c(/C=C2\Oc4ccc(NC(=O)Nc5cccnc5)cc4C2=O)cn3C)CC1 [Compound 256, N-methyl-1-{1-methyl-3-[(Z)-{3-oxo-5-[(pyridin-3-ylcarbamoyl)amino]-1-benzofuran-2(3H)-ylidene}methyl]-1H-pyrrolo[2,3-b]pyridin-4-yl}-N-(pyridin-3-ylmethyl)piperidine-4-carboxamide] | 1020 | 10.9 | 1610 | 195 to 205

The next lines start with the values.

Row | IC50 [1] [nM] | IC50 [2] [nM] | IC50 [3] [nM] | melting point [°C] | SMILES
5 | 47 | 14 | 167 | 239 to 242 | CN1CCN(C2CCN(c3ccnc4c3c(/C=C3\Oc5cccc(O)c5C3=O)cn4C)CC2)CC1 [Compound 129, (2Z)-4-hydroxy-2-({1-methyl-4-[4-(4-methylpiperazin-1-yl)piperidin-1-yl]-1H-pyrrolo[2,3-b]pyridin-3-yl}methylene)-1-benzofuran-3(2H)-one]
6 | 296 | 7.5 | 2590 | 227 to 235 | Cn1cc(/C=C2\Oc3ccc(NC(=O)Nc4cccnc4)cc3C2=O)c2c(N3CC4CCC3CO4)ccnc21 (stereo not drawn) [Compound 277, 1-[(2Z)-2-{[1-methyl-4-(2-oxa-5-azabicyclo[2.2.2]oct-5-yl)-1H-pyrrolo[2,3-b]pyridin-3-yl]methylidene}-3-oxo-2,3-dihydro-1-benzofuran-5-yl]-3-pyridin-3-ylurea]
7 | 479 | 2000 | 3240 | 325 | Cn1cc(/C=C2\Oc3cccc(O)c3C2=O)c2c(O)ccnc21 [Compound 95, (2Z)-4-hydroxy-2-[(4-hydroxy-1-methyl-1H-pyrrolo[2,3-b]pyridin-3-yl)methylene]-1-benzofuran-3(2H)-one]
8 | > 10000 | 6 | > 10000 | 187 to 194 | Cn1cc(/C=C2\Oc3ccc(NC(=O)Nc4cccnc4)cc3C2=O)c2c(N3CCC(C(=O)NCc4cccnc4)CC3)ccnc21 [Compound 270, 1-{1-methyl-3-[(Z)-{3-oxo-5-[(pyridin-3-ylcarbamoyl)amino]-1-benzofuran-2(3H)-ylidene}methyl]-1H-pyrrolo[2,3-b]pyridin-4-yl}-N-(pyridin-3-ylmethyl)piperidine-4-carboxamide]
9 | 29 | 0.7 | 127 | 280 to 287 | Cn1cc(/C=C2\Oc3cccc(O)c3C2=O)c2c(N3CCC(C(N)=O)CC3)ccnc21 [Compound 114, 1-{3-[(Z)-(4-hydroxy-3-oxo-1-benzofuran-2(3H)-ylidene)methyl]-1-methyl-1H-pyrrolo[2,3-b]pyridin-4-yl}piperidine-4-carboxamide]
